# Values quoted from earlier work as cited in US20230008367A1, “COMPOUNDS USEFUL FOR TREATING LIVER DISEASES” (ABIONYX PHARMA SA, priority 2019, published 2023).
# Tested on: adults with NASH and fibrosis
# Conditions: Phase 3 trial
smiles,measurement,value
CSc1ccc(C(=O)/C=C/c2cc(C)c(OC(C)(C)C(=O)O)c(C)c2)cc1 [elafibranor],primary endpoint of NASH resolution without worsening of fibrosis,did not demonstrate a statistically significant effect
